Results as given in ChEMBL document CHEMBL1770148, “Dual function inhibitors of relevance to chronic obstructive pulmonary disease” (Bioorg Med Chem Lett, 2011).
The source made the active and inactive calls. The calls are words filed in the database; no cut-off is given here.

Key:
[1] = target: T1, Neutrophil elastase (Homo sapiens) (UniProt P08246); test: Inhibition of human neutrophil elastase assessed as remaining activity using MeOSuc-AAPV-pNA substrate at 10.5 uM; details: TDE = time-dependent effect
T1 sequence (whole entry): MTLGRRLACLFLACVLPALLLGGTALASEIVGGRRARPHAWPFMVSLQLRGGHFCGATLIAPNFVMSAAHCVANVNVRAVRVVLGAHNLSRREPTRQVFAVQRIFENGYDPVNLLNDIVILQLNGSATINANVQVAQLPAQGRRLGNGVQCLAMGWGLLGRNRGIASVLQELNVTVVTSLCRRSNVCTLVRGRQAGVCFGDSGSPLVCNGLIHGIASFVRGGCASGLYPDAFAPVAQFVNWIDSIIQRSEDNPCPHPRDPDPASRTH

Caspase-1 (Homo sapiens) [2] = target: T2, Caspase-1 (Homo sapiens) (UniProt P29466); test: Inhibition of caspase 1 by Z-Asp-CH2DCB released from compound using […] substrate after 2 mins in presence of human neutrophil elastase
T2 sequence (whole entry): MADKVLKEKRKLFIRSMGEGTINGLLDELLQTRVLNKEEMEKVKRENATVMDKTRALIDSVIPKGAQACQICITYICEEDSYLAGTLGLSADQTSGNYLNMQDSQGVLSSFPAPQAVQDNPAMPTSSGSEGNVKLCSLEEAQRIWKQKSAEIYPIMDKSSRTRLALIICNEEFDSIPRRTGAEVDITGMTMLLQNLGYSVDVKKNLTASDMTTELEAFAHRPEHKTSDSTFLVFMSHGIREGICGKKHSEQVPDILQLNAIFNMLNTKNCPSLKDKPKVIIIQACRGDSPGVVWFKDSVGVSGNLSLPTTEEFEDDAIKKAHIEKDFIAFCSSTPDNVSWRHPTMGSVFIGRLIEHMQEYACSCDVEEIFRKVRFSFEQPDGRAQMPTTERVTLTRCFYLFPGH

Caspase-1 (Homo sapiens) [3] = target: T2, Caspase-1 (Homo sapiens); test: Inhibition of caspase 1 using […] substrate
[4] = target: T3, Myeloblastin (Homo sapiens) (UniProt P24158); test: Inhibition of proteinase 3 after 30 mins
T3 sequence (whole entry): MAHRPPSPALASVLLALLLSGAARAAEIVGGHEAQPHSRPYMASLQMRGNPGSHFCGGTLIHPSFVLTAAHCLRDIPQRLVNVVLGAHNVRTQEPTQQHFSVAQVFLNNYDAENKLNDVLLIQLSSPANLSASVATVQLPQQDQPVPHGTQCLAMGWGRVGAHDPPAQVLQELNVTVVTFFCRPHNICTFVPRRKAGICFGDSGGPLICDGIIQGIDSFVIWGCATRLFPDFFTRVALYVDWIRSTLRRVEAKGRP

inhibition [1]: tde | inhibition (Caspase-1 (Homo sapiens) [2]): Active | inhibition (Caspase-1 (Homo sapiens) [3]): inactive | inhibition [4]: inactive
SMILES: CCC[C@H]1C(=O)N(COC(=O)C[C@H](NC(=O)OCc2ccccc2)C(=O)COC(=O)c2c(Cl)cccc2Cl)S(=O)(=O)N1C
